Where two headings read alike, the source gives them in different places.
Key:
Type in all cases: biochemical
[1] = target: CDK2/CCNE1 (Homo sapiens, UniProt P24941); experiment: CDK2 homogeneous time-resolved fluorescence (HTRF) kinase assay; conditions: CDK2/CCNE
Summary of the method: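 CDK2/CCNE1 (3 nM) preincubated 20 min at 23 °C with compound, then reacted 60 min at 23 °C with 1 mM ATP and 50 nM ULight-4E-BP1 (Thr37/46) peptide. Stopped with EDTA, phospho-peptide detected by Eu-anti-phospho antibody (665 nm or 665/615 ratio). IC50 from 11-point half-log titrations typically starting at 10 μM.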

[2] = target: CDK6/CCND1 (Homo sapiens, UniProt Q00534); experiment: CDK6 homogeneous time-resolved fluorescence (HTRF) kinase assay; conditions: CDK6/CCND
Chain of CDK6/CCND1 (Q00534 whole entry): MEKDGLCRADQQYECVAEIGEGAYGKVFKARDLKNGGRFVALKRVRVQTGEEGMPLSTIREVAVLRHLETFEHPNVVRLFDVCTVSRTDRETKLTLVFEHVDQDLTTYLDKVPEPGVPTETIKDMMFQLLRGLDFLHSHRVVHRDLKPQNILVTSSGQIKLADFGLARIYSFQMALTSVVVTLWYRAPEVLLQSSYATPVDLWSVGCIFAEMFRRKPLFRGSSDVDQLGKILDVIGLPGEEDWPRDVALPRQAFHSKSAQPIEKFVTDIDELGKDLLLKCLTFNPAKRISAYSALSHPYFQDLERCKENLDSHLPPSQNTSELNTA
Chain of CDK6/CCND1 (P24385 whole entry partner): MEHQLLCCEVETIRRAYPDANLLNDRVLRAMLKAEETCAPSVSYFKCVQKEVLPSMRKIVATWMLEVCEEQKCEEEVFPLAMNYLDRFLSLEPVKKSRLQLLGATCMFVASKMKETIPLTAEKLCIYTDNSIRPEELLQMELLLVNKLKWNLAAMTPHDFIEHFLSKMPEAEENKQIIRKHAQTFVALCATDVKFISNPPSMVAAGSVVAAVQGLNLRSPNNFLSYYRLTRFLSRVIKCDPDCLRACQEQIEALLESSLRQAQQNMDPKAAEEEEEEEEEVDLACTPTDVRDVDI
Summary of the method: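 1 nM enzyme, 1 mM ATP, 50 nM ULight-4E-BP1 (Thr37/46) peptide, 1% DMSO; 20 min compound preincubation, 60 min reaction, 23 °C. EDTA stop, 2 nM Eu-anti-phospho-4E-BP1 antibody 60 min. TR-FRET 665 nm (or 665/615 ratio); IC50 from 11-point half-log titration, top 10 μM.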

[3] = target: CDK4/CCND3 (Homo sapiens, UniProt P11802); experiment: CDK4 homogeneous time-resolved fluorescence (HTRF) kinase assay; conditions: CDK4/CCND
Chain of CDK4/CCND3 (P11802 whole entry): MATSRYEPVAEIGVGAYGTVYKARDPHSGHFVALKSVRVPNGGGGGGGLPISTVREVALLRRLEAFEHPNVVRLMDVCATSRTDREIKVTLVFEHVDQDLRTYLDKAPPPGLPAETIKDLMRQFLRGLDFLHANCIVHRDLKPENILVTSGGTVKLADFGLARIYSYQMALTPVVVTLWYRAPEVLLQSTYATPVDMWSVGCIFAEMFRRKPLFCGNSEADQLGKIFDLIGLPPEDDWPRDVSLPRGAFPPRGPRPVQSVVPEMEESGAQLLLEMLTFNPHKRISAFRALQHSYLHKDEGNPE
Chain of CDK4/CCND3 (P30281 whole entry partner): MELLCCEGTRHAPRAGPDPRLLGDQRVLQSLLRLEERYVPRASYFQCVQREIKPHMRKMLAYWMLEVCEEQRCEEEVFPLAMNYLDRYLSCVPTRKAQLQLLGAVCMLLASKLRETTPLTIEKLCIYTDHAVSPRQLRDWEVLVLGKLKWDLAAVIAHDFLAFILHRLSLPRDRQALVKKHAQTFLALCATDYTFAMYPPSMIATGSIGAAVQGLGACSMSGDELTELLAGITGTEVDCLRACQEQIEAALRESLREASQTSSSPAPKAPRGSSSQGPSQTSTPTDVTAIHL
Summary of the method: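 Inhibition of CDK4/CCND3 (1.5 nM) was measured at high ATP (1 mM) using 50 nM ULight-labelled 4E-BP1 Thr37/46 peptide; detection used 2 nM europium anti-phospho antibody after EDTA quench. IC50 values came from 11-point half-log titrations typically starting at 10 μM.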

[4] = target: CDK1/CCNB1 (Homo sapiens, UniProt P06493); experiment: CDK1 homogeneous time-resolved fluorescence (HTRF) kinase assay; conditions: CDK1/CCNB
Chain of CDK1/CCNB1 (P06493 whole entry): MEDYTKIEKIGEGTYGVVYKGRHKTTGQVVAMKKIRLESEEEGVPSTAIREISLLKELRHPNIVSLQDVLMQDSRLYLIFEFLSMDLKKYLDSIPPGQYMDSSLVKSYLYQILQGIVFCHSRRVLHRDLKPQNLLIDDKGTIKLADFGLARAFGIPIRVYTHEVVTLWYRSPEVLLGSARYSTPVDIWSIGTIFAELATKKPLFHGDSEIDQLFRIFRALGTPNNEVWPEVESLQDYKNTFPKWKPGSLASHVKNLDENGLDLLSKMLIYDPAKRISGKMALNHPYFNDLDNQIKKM
Chain of CDK1/CCNB1 (P14635 whole entry partner): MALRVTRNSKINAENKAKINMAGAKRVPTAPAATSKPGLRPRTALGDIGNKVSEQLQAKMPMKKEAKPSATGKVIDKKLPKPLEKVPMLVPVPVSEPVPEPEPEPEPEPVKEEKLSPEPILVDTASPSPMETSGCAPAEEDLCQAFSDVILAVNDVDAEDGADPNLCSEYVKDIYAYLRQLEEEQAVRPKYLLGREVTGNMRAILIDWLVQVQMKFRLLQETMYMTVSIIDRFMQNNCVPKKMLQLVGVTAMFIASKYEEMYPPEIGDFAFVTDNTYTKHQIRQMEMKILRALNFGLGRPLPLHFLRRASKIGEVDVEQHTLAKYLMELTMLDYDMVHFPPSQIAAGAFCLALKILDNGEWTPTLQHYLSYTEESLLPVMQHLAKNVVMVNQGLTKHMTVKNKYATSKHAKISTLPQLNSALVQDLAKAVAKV
Summary of the method: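 HTRF assay with 0.5 nM CDK1/CCNB1, 1 mM ATP, 50 nM ULight-eIF4E-BP1 (Thr37/46) peptide; compound preincubated 20 min, reaction 60 min at 23 °C, EDTA stop, Eu-anti-phospho antibody detection. 11-point half-log titration from 10 μM, 1% DMSO; IC50 from 665 nm or 665/615 signal.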

[5] = x = IC50 <25 nM, read-out: CDK2/CCNE IC50 (<25 nM)
[6] = x = IC50 >250 nM, read-out: CDK6/CCND IC50 (>250 nM column)
[7] = x = IC50 >250 nM, read-out: CDK4/CCND IC50 (>250 nM column)
[8] = x = IC50 25-250 nM, read-out: CDK1/CCNB IC50 (25-250 nM)
[9] = x = IC50 25-250 nM, read-out: CDK2/CCNE IC50 (25-250 nM)
[10] = x = IC50 >250 nM, read-out: CDK1/CCNB IC50 (>250 nM column)
[11] = x = IC50 25-250 nM, read-out: CDK6/CCND IC50 (25-250 nM)
[12] = x = IC50 25-250 nM, read-out: CDK4/CCND IC50 (25-250 nM)
[13] = x = IC50 <25 nM, read-out: CDK1/CCNB IC50 (<25 nM)

Row | SMILES | IC50 [1, 5] [nM] | IC50 [2, 6] [nM] | IC50 [3, 7] [nM] | IC50 [4, 8] [nM] | IC50 [1, 9] [nM] | IC50 [4, 10] [nM] | IC50 [2, 11] [nM] | IC50 [3, 12] [nM] | IC50 ([3]; x = IC50 <25 nM, read-out: CDK4/CCND IC50 (<25 nM)) [nM] | IC50 [4, 13] [nM]
1 | Cc1cc(S(C)(=O)=O)ccc1Nc1cc2c(C#Cc3ccc4c(c3)NC(=O)C4(C)C)nccc2cn1 [Ex 424, 3,3-dimethyl-6-((7-((2-methyl-4-(methylsulfonyl)phenyl)amino)-2,6-naphthyridin-1-yl)ethynyl)indolin-2-one] | < 25 | > 250 | > 250 | 25 to 250 |  |  |  |  |  | 
2 | CC1(C)C(=O)Nc2cc(C#Cc3nccc4cnc(Nc5ccc(S(C)(=O)=O)nc5)cc34)ccc21 [Ex 425, 3,3-dimethyl-6-((7-((6-(methylsulfonyl)pyridin-3-yl)amino)-2,6-naphthyridin-1-yl)ethynyl)indolin-2-one] |  | > 250 | > 250 |  | 25 to 250 | > 250 |  |  |  | 
3 | CCC1(CC)C(=O)Nc2cc(C#Cc3nccc4cnc(Nc5ccc(S(=O)(=O)C(C)C)cc5)cc34)ccc21 [Ex 429, 3,3-diethyl-6-((7-((4-(isopropylsulfonyl)phenyl)amino)-2,6-naphthyridin-1-yl)ethynyl)indolin-2-one] | < 25 | > 250 | > 250 |  |  | > 250 |  |  |  | 
4 | CCC1(CC)C(=O)Nc2cc(C#Cc3nccc4cnc(Nc5ccc(S(=O)(=O)CC)cc5)cc34)ccc21 [Ex 430, 3,3-diethyl-6-((7-((4-(ethylsulfonyl)phenyl)amino)-2,6-naphthyridin-1-yl)ethynyl)indolin-2-one] | < 25 | > 250 | > 250 |  |  | > 250 |  |  |  | 
5 | CC1(C)C(=O)Nc2cc(C#Cc3nccc4cnc(Nc5ccc(S(C)(=O)=O)cn5)cc34)ccc21 [Ex 439, 3,3-dimethyl-6-((7-((5-(methylsulfonyl)pyridin-2-yl)amino)-2,6-naphthyridin-1-yl)ethynyl)indolin-2-one] | < 25 | > 250 | > 250 | 25 to 250 |  |  |  |  |  | 
6 | COc1cc(S(C)(=O)=O)ccc1Nc1cc2c(C#Cc3ccc4c(c3)NC(=O)C4(C)C)nccc2cn1 [Ex 440, 6-((7-((2-methoxy-4-(methylsulfonyl)phenyl)amino)-2,6-naphthyridin-1-yl)ethynyl)-3,3-dimethylindolin-2-one] | < 25 | > 250 | > 250 |  |  | > 250 |  |  |  | 
7 | CC1(C)C(=O)Nc2cc(C#Cc3nccc4cnc(Nc5ccc(S(=O)(=O)NC6CCNCC6)cc5)cc34)ccc21 [Ex 442, 4-((5-((3,3-dimethyl-2-oxoindolin-6-yl)ethynyl)-2,6-naphthyridin-3-yl)amino)-N-(piperidin-4-yl)benzenesulfonamide] | < 25 |  |  |  |  |  | 25 to 250 |  | < 25 | < 25
8 | CC1(C)C(=O)Nc2cc(C#Cc3nccc4cnc(Nc5ccc(S(=O)(=O)NC6CCOCC6)cc5)cc34)ccc21 [Ex 443, 4-((5-((3,3-dimethyl-2-oxoindolin-6-yl)ethynyl)-2,6-naphthyridin-3-yl)amino)-N-(tetrahydro-2H-pyran-4-yl)benzenesulfonamide] | < 25 | > 250 |  | 25 to 250 |  |  |  | 25 to 250 |  | 
9 | CC1(C)C(=O)Nc2cc(C#Cc3nccc4cnc(Nc5ccc(S(=O)(=O)C6CC6)cc5)cc34)ccc21 [Ex 444, 6-((7-((4-(cyclopropylsulfonyl)phenyl)amino)-2,6-naphthyridin-1-yl)ethynyl)-3,3-dimethylindolin-2-one] | < 25 | > 250 |  |  |  |  |  | 25 to 250 |  | < 25
10 | CS(=O)(=O)c1ccc(Nc2cc3c(C#Cc4ccc5c(c4)NC(=O)C54CC4)nccc3cn2)cc1 [Ex 445, 6'-((7-((4-(methylsulfonyl)phenyl)amino)-2,6-naphthyridin-1-yl)ethynyl)spiro[cyclopropane-1,3'-indolin]-2'-one] | < 25 |  |  | 25 to 250 |  |  | 25 to 250 | 25 to 250 |  | 
11 | CC(C)S(=O)(=O)c1ccc(Nc2cc3c(C#Cc4ccc5c(c4)NC(=O)C5(C)C)nccc3cn2)cc1 [Ex 458, 6-((7-((4-(isopropylsulfonyl)phenyl)amino)-2,6-naphthyridin-1-yl)ethynyl)-3,3-dimethylindolin-2-one] | < 25 | > 250 | > 250 | 25 to 250 |  |  |  |  |  | 
12 | CS(=O)(=O)c1ccc(Nc2cc3c(C#Cc4ccc5c(c4)NC(=O)C54CCC4)nccc3cn2)cc1 [Ex 460, 6'-((7-((4-(methylsulfonyl)phenyl)amino)-2,6-naphthyridin-1-yl)ethynyl)spiro[cyclobutane-1,3'-indolin]-2'-one] | < 25 | > 250 | > 250 |  |  | > 250 |  |  |  | 

Results, then the molecule that gave them:

Row | IC50 [1, 5] [nM] | IC50 [2, 6] [nM] | IC50 [3, 7] [nM] | IC50 [4, 8] [nM] | IC50 [1, 9] [nM] | IC50 [4, 10] [nM] | IC50 [2, 11] [nM] | IC50 [3, 12] [nM] | IC50 ([3]; x = IC50 <25 nM, read-out: CDK4/CCND IC50 (<25 nM)) [nM] | IC50 [4, 13] [nM] | SMILES
13 | < 25 |  |  | 25 to 250 |  |  | 25 to 250 | 25 to 250 |  |  | CN1CCC(NS(=O)(=O)c2ccc(Nc3cc4c(C#Cc5cccnc5N)nccc4cn3)cc2)CC1 [Ex 432, 4-((5-((2-aminopyridin-3-yl)ethynyl)-2,6-naphthyridin-3-yl)amino)-N-(1-methylpiperidin-4-yl)benzenesulfonamide]
14 | < 25 |  |  | 25 to 250 |  |  | 25 to 250 | 25 to 250 |  |  | Nc1ncccc1C#Cc1nccc2cnc(Nc3ccc(S(=O)(=O)NC4CCNCC4)cc3)cc12 [Ex 433, 4-((5-((2-aminopyridin-3-yl)ethynyl)-2,6-naphthyridin-3-yl)amino)-N-(piperidin-4-yl)benzenesulfonamide]
15 | < 25 | > 250 | > 250 |  |  | > 250 |  |  |  |  | Nc1ncccc1C#Cc1nccc2cnc(Nc3ccc(S(=O)(=O)NC4CCOCC4)cc3)cc12 [Ex 434, 4-((5-((2-aminopyridin-3-yl)ethynyl)-2,6-naphthyridin-3-yl)amino)-N-(tetrahydro-2H-pyran-4-yl)benzenesulfonamide]
16 | < 25 | > 250 | > 250 | 25 to 250 |  |  |  |  |  |  | Nc1ncccc1C#Cc1nccc2cnc(Nc3ccc(S(=O)(=O)NC4CC4)cc3)cc12 [Ex 435, 4-((5-((2-aminopyridin-3-yl)ethynyl)-2,6-naphthyridin-3-yl)amino)-N-cyclopropylbenzenesulfonamide]
17 | < 25 | > 250 |  | 25 to 250 |  |  |  | 25 to 250 |  |  | CCNS(=O)(=O)c1ccc(Nc2cc3c(C#Cc4cccnc4N)nccc3cn2)cc1 [Ex 447, 4-((5-((2-aminopyridin-3-yl)ethynyl)-2,6-naphthyridin-3-yl)amino)-N-ethylbenzenesulfonamide]
18 | < 25 | > 250 | > 250 | 25 to 250 |  |  |  |  |  |  | Cc1cc(S(N)(=O)=O)ccc1Nc1cc2c(C#Cc3cccnc3N)nccc2cn1 [Ex 448, 4-((5-((2-aminopyridin-3-yl)ethynyl)-2,6-naphthyridin-3-yl)amino)-3-methylbenzenesulfonamide]
19 |  | > 250 | > 250 |  | 25 to 250 | > 250 |  |  |  |  | Cn1cc(NS(=O)(=O)c2ccc(Nc3cc4c(C#Cc5cccnc5N)nccc4cn3)cc2)cn1 [Ex 450, 4-((5-((2-aminopyridin-3-yl)ethynyl)-2,6-naphthyridin-3-yl)amino)-N-(1-methyl-1H-pyrazol-4-yl)benzenesulfonamide]
20 | < 25 | > 250 | > 250 | 25 to 250 |  |  |  |  |  |  | CC1(C)C(=O)Nc2cc(C#Cc3nccc4cnc(Nc5ccc(S(=O)(=O)NC6CCC6)cc5)cc34)ccc21 [Ex 457, N-cyclobutyl-4-((5-((3,3-dimethyl-2-oxoindolin-6-yl)ethynyl)-2,6-naphthyridin-3-yl)amino)benzenesulfonamide]
21 | < 25 | > 250 |  | 25 to 250 |  |  |  | 25 to 250 |  |  | CCS(=O)(=O)c1ccc(Nc2cc3c(C#Cc4ccc5c(c4)NC(=O)C5(C)C)nccc3cn2)cc1 [Ex 459, 6-((7-((4-(ethylsulfonyl)phenyl)amino)-2,6-naphthyridin-1-yl)ethynyl)-3,3-dimethylindolin-2-one]
22 | < 25 | > 250 | > 250 |  |  | > 250 |  |  |  |  | CCC1(CC)C(=O)Nc2cc(C#Cc3nccc4cnc(Nc5ccc(S(C)(=O)=O)cc5)cc34)ccc21 [Ex 461, 3,3-diethyl-6-((7-((4-(methylsulfonyl)phenyl)amino)-2,6-naphthyridin-1-yl)ethynyl)indolin-2-one]

— US20260325533A1, “CDK INHIBITOR COMPOUNDS” (ALEKSIA THERAPEUTICS, INC., priority 2023, published 2026)
